From US11779565B2, “Small organic molecules for use in the treatment of neuroinflammatory disorders” (THE MEDICAL RESEARCH, INFRASTRUCTURE AND HEALTH SERVICES …, priority 2017, dated 2023)

Columns and labels:
BMP-4 = biological target: T1, BMP-4 (Homo sapiens, UniProt P12644); test: ATDC5 bioassay with rhBMP-4 stimulation instead of rhBMP-2 (ALP); format: cell-based, mouse; conditions: ATDC5 cells; for effect on ALP production induced by BMP-4 compared with BMP-2: 2.5 μM and 5 μM; for inhibition at 2.5 µM: read-out: inhibition of BMP-4 (ALP induction)
T1 sequence (P12644 293-408): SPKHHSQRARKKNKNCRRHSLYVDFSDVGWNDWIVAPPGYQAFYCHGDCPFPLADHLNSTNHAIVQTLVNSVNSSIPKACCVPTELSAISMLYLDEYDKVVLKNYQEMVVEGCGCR
Description: Poly-L-lysine (Sigma-Aldrich) was added to 384-well plates and was removed after 30 min of incubation at RT. An assay medium containing DMEM/F12, 2% FBS, 100 units/ml penicillin, […] streptomycin (Biological industries) was added to each well. […] ATDC5 cells (Sigma-Aldrich) were harvested, re-suspended in assay medium and added to a final concentration of 2000 cells/well. Finally, heparin (Sigma-Aldrich) was added to a final concentration of 2 μg/ml. The cells were incubated for 48 hours at 37° C. with 5% CO2 in a humidified chamber in the presence or absence of potential small molecule inhibitors of BPM-2. After incubation, ALP levels and cell viability were determined using a completely automated protocol. Cells were washed with PBS, lysed using a lysis buffer containing 0.2% Triton X-100 in PBS supplemented with a protease inhibitor cocktail (Sigma-Aldrich) and incubated for 25 min at RT. ALP level was then determined by addition of CDP-Star® chemiluminescent substrate (Sigma-Aldrich) and measurement of luminescence after incubation for 25 min at RT in the dark. Cell viability was finally determined by addition of CellTiter-Glo® reagent (Biological Industries) and luminescence measurement after 10 min of incubation.
Due to the high homology between BMP-2 and BMP-4, the ability of the SMs to inhibit BMP-2 and BMP-4 signaling (similar to the effect of the anti-BMP-2/4 mAb) was also examined.

RR-EAE mice [1] = test: De novo expression of doublecortin (BrdU+DCX+ cells) in SVZ and SGZ of RR-EAE mice; format: in vivo
Source text: FIGS. 10A-10B—The effect of SM1, SM7, SM9 and SM6 on de novo expression of neuroblasts marker doublecortin in the SVZ. FIG. 10A—Immunofluorescence images showing the labeling of BrdU and doublecortin (DCX) in the SVZ. Images were obtained using Zeiss 710 confocal microscope, coronal sections. LV, lateral ventricle, SVZ, subventricular zone. Scale bar for images: a, c, e, g, i, k, m, o=100 μm (magnification×10), and images: b, d, f, h, j, 1, n, p=20 μm (magnification×63). FIG. 10B: Quantification of BrdU^+ DOC^+ cells in the SVZ. Analysis was performed using image J software on 3 sections from each mouse (3 mice from each group, total n=9). Values are given as mean±SEM and the results of Student's t-test are represented as *p<0.05.
FIGS. 11A-11B—The effect of SM1, SM7, SM9 and SM6 on de novo expression of doublecortin in the SGZ. FIG. 11A: are immunohistochemical images showing the labeling of BrdU^+DCX^+ cells in the SGZ. Images were obtained using Olympus 8.1 microscope (magnification×10). FIG. 11B: Quantification of BrdU^+DCX^+ cells in the SGZ. Analysis was performed using image J software on 3 sections from each mouse (3 mice from each group, total n=9). Values are given as mean±SEM and the results of Student's t-test are represented as *p<0.05.
RR-EAE induced mice were intraperitoneally injected with 250 μg/mouse (Low-L) or 500 μg/mouse (High-H) of the small molecules SM1, SM7, SM9, SM6, or the corresponding vehicle. The SMs were injected each day starting on day 9 post immunization for 30 days. For immunohistochemical analysis, 3 mice of each group were intraperitoneally injected daily with bromo-2′-deoxyuridine (BrdU) starting from day 9 post immunization for 8 following days.
Next, the amount of BrdU DCX cells in the SGZ of mice was evaluated. FIGS. 11A-11B show immunohistochemical labeling of BrdU DCX cells in mice with EAE after treatment with the SMs or with vehicle.

SMAD1/5/8 signaling = SMAD1/5/8 signaling by Western blot in P19 cells; format: cell-based, murine; conditions: 4 h
Description: P19 cells were seeded in 6-well-plates (3.5×10^5 cells/well). On the following day, the cells were either untreated or treated with 5×10^−7 M RA, 5 ng/ml BMP-2 or SMs for 4 h. Cells were washed with ice cold PBS, harvested and lysed with ice cold RIPA buffer (Sigma-Aldrich) supplemented with protease inhibitor cocktail and sodium orthovanadate (Na3VO4) as phosphatase inhibitor (Sigma-Aldrich). Protein concentrations were determined using a BCA protein assay kit (Pierce, Rockford, Ill.). Cell lysates (40-60 μg protein) were separated by 4-15% SDS-PAGE gel electrophoresis and then transferred to nitrocellulose membranes at 0.2 A for 2 h. The membranes were blocked at room temperature for 1 h in 5% (w/v) non-fat-dried milk and then incubated with anti-phospho-Smad1/5/9, anti-Smad1 (Cell signaling Technology, Beverly, Mass., USA) and anti-tubulin (Sigma-Aldrich) antibodies at room temperature for 2 h. The membranes were washed and incubated with alkaline phosphatase-conjugated secondary antibody (Jackson Laboratories Immune Research, PA, USA). Signal was detected using enhanced chemiluminescence kit (Clarity, Bio-Rad Laboratories, Richmond, Calif.) and digital images were captured by MicroChemi (DNR Bio-imaging Systems, Jerusalem, Israel). Protein levels were quantified using ImageJ software and normalized to {alpha}-tubulin.
The canonical BMP signal is known to be mediated via SMAD phosphorylation. BMPs transduce signals by binding to complexes of type I and II serine/threonine kinase receptors. Ligand binding induces phosphorylation of the receptors, which then activate canonical signaling via receptor Smads (R-Smads) 1, 5 and 8. R-Smads are phosphorylated by the activated type I receptor. They then complex with Smad4, triggering nuclear translocation. The effect of the SMs on the phosphorylation of the canonical SMAD1/5/8 signaling, induced in P19 cells in response to stimulation with BMP-2, was examined.

RR-EAE mice [2] = test: Demyelination in EAE: LFB-H&E staining of lumbar spinal cord; format: in vivo; conditions: day 48 post immunization (vehicle 28.3±1.8%)
Description: FIGS. 6A-6B—The effect of SM1, SM6, SM7 and SM9 on demyelination. FIG. 6A: Representative images of the lumbar spinal cord section, stained with LFB (anterio lateral funiculus), of mice treated with vehicle, SM1 10 mg/kg/day, SM1 20 mg/kg/day, SM7 10 mg/kg/day, SM9 10 mg/kg/day, SM9 20 mg/kg/day, SM6 10 mg/kg/day and SM6 20 mg/kg/day. FIG. 6B: Quantification of myelinated area. […] Quantification was performed using Image J software on 6 mice/group and 3 sections/mouse.
The direct effect of the SMs on the demyelination and remyelination processes was analyzed. Spinal cord was removed from 6 mice of each group and the lumbar segment of the spinal cord was sectioned (10 μm coronal paraffin section) and was processed for LFB-H&E (luxol fast blue with H&E) for myelin and infiltrates staining.

[3] = high dose (H) 500 μg/mouse i.p. daily from day 9 for 30 days
[4] = low dose (L) 250 μg/mouse i.p. daily from day 9 for 30 days
[5] = low dose (L) 250 μg/mouse i.p. daily

SMILES	effect on ALP production induced by BMP-4 compared with BMP-2 (BMP-4)	BrdU+DCX+ cells in the SVZ vs. vehicle (RR-EAE mice [1]; [3])	BrdU+DCX+ cells in the SVZ vs. vehicle (RR-EAE mice [1]; [4])	reduction in p-SMAD/tubulin compared to stimulation with BMP-2 alone (SMAD1/5/8 signaling; 2.5 μM) [%]	reduction in p-SMAD/tubulin compared to stimulation with BMP-2 alone (SMAD1/5/8 signaling; 5 μM) [%]	% myelinated area (LFB-stained area of total spinal cord section) (RR-EAE mice [2]; 10 mg/kg) [%]	BrdU+DCX+ cells in the SGZ vs. vehicle (RR-EAE mice [1]; [5])	inhibition at 2.5 µM (BMP-4) [%]	% myelinated area (LFB-stained area of total spinal cord section) (RR-EAE mice [2]; 20 mg/kg) [%]	BrdU+DCX+ cells in the SGZ vs. vehicle (RR-EAE mice [1]; high dose (H) 500 μg/mouse i.p. daily)
COC(=O)c1sccc1N/N=C(\C#N)S(=O)(=O)c1cccs1 [SM1, Methyl 3-[(2E)-2-[cyano(thiophen-2-ylsulfonyl)methylidene]hydrazinyl]thiophene-2-carboxylate]	same effect	trend for increased induction	trend for increased induction	24.2	19.9					
O=C(Nc1cccc(C(F)(F)F)c1)c1ccc([N+](=O)[O-])o1 [SM6, N2-[3-(trifluoromethyl)phenyl)-5-nitro-2-furamide]	same effect	trend for increased induction				34.8±1.6	trend for increased			
N#Cc1c(O)nsc1Nc1ccccc1C(F)(F)F [SM7, 3-hydroxy-5-[2-(trifluoromethyl)aniline]isothiazole-4-carbonitrile]	inhibit BMP-2 slightly more than BMP-4			40.0		34.0±0.8	trend for increased	29.8		
CS(=O)(=O)c1noc(-c2ccc(Cl)cc2)c1C#N [SM9, 5-(4-chlorophenyl)-3-methylsulfonyl-1,2-oxazole-4-carbonitrile]	inhibit BMP-2 slightly more than BMP-4	trend for increased induction	significant increase	42.7			trend for increased	18.9	34.6±1.6	significant increased induction
